In patent US9125898B2, “Acetam derivatives for pain relief” (NEUROTUNE AG, priority 2008, dated 2015):

Tested on: oxaliplatin induced hyperalgesia in the rat
Assay: Oxaliplatin induced hyperalgesia in the rat paw-pressure test
Format: in vivo
Details: for Paw pressure, pre-test before all treatments: baseline, drug 100 mg/kg p.o.; for Paw pressure, 1a week - 30 min / Paw pressure, 2a week - 30 min / Paw pressure, 3a week - 30 min / Paw pressure, 3a week - 4 h / Paw pressure, 3a week - 8 h / Paw pressure, 3a week - 24 h: drug 100 mg/kg p.o. once daily
Method: Drugs: The following substance was used: NT-13317 (batch No. RR0011-184A1 supplied by Brane Discovery Srl, Gerenzano Italy). NT-13317 was dissolved in DMSO 20%, 10% glucose and administered at the dose of 10, 30 and 100 mg/kg p.o.
Gabapentin (Sigma) was dissolved in 1% CMC (carboxymethylcellulose-Sigma) and orally administered at 100 mg/kg, and dissolved in saline and i.v. administered at 3 mg/kg.
Oxaliplatin model: A peripheral neuropathy was induced in adult rats, by administration of oxaliplatin (Tocris), at 2.4 mg/kg i.p. in saline once a day on days 1, 2, 3, 4, 5, 8, 9, 10, 11, 12, 15, 16, 17, 18, 19 (cumulative dose 36 mg/kg) according to [1].
In the first experiment NT-13317 and gabapentin were given chronically at the dose 100 mg/kg po starting 3 days before oxaliplatin and every day for 5 days/week for 3 weeks.
A dose-response experiment was then performed with NT-13317 (10, 30 and 100 mg/kg po) using the same treatment schedule.
Paw pressure test: Paw mechanical sensitivity was determined using a Randall & Selitto apparatus exerting a force that increases at constant rate (32 g/s). The stimulus at which rats withdrawn the paw was evaluated before and at different times after treatment. Results represent the mean of mechanical thresholds expressed as grams. To avoid any possible damage to the animal paw the maximum applied force was fixed at 240 g.
Statistical analysis: All experimental results are given as the mean±S.E.M. An analysis of variance, ANOVA, followed by Fisher's protected least significant difference procedure for post hoc comparison, were used to verify significance between two means of behavioral results. Data were analyzed with the StatView software for the Macintosh (1992). P values≦0.05 were considered significant.

NCC1(CC(=O)O)CCCCC1 [GABAPENTIN, Gabapentin, reference compound]
Reduction of mechanical hyperalgesia over three weeks of treatment (in words) (100 mg/kg p.o. once daily, 5 days/week for 3 weeks): much lower effect only at the end of the third week | Pharmacodynamic profile at the end of the third week (gabapentin 100 mg/kg p.o.): sporadic, intermediate efficacy at 30 min | Paw pressure, pre-test before all treatments (oxaliplatin i.p. group): 61.1 ± 4.0 g | Paw pressure, 1a week - 30 min (oxaliplatin i.p.): 47.8 ± 5.6 g | Paw pressure, 2a week - 30 min (oxaliplatin i.p.): 49.0 ± 5.5 g | Paw pressure, 3a week - 30 min (oxaliplatin i.p.): 59.5 ± 5.5 g | Paw pressure, 3a week - 4 h (oxaliplatin i.p.): 55.6 ± 4.2 g | Paw pressure, 3a week - 8 h (oxaliplatin i.p.): 43.8 ± 6.1 g | Paw pressure, 3a week - 24 h (oxaliplatin i.p.): 42.2 ± 5.5 g | Paw pressure, pre-test before all treatments (vehicle i.p. (no oxaliplatin) group): 62.7 ± 3.9 g | Paw pressure, 1a week - 30 min (vehicle i.p. (no oxaliplatin)): 65.6 ± 4.9 g | Paw pressure, 2a week - 30 min (vehicle i.p. (no oxaliplatin)): 73.7 ± 5.2 g | Paw pressure, 3a week - 30 min (vehicle i.p. (no oxaliplatin)): 82.3 ± 5.2 g | Paw pressure, 3a week - 4 h (vehicle i.p. (no oxaliplatin)): 76.2 ± 4.8 g | Paw pressure, 3a week - 8 h (vehicle i.p. (no oxaliplatin)): 78.2 ± 5.6 g | Paw pressure, 3a week - 24 h (vehicle i.p. (no oxaliplatin)): 68.7 ± 5.9 g
